Laboratory results taken from publication doi:10.1101/2022.05.12.491652v1 (biorxiv, 2022).

How the values were obtained:
in vitro = conditions: human, hela cells
PfClpQ = molecular target: T1, PfClpQ (Plasmodium falciparum, UniProt Q8I5B6); test: fluorogenic peptide; assay type: biochemical
T1 sequence (Q8I5B6 38-207): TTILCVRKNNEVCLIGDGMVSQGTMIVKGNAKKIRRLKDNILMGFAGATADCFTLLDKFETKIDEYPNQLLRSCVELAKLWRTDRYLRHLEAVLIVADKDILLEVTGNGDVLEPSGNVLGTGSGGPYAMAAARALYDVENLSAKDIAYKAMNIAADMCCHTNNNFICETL

Compound | CC50 (in vitro) | Ki (PfClpQ)
Cn1nc(-c2ccncc2)nc2c(=O)n(C)c(=O)nc1-2 [ICGEB-L1, 1,6-dimethyl-3-(pyridin-4-yl)-1H,5H,6H,7H-pyrimido[5,4-e][1,2,4]triazine-5,7-dione] | 8.4 µM | –
CCn1nc(-c2ccc(Cl)cc2)nc2c(=O)n(C)c(=O)nc1-2 [ICGEB-L2, 3-(4-chlorophenyl)-1-ethyl-6-methyl-1H,5H,6H,7H-pyrimido [5,4-e] [1,2,4] triazine-5,7-dione] | 9.93 µM | –
CCn1nc(/C=C/c2ccccc2)[n+]([O-])c2c(=O)n(C)c(=O)nc1-2 [ICGEB-L3, 1-ethyl-6-methyl-5,7-dioxo-3-[(1E)-2-phenylethenyl]-1H,5H,6H,7H-pyrimido[5,4-e][1,2,4]triazin-4-ium-4-olate] | 10 µM | –
CCn1nc(-c2ccc(C(=O)OC)cc2)nc2c(=O)n(C)c(=O)nc1-2 [CN172, methyl 4-{1-ethyl-6-methyl-5,7-dioxopyrimido[5,4-e][1,2,4]triazin-3-yl}benzoate] | 9.58 µM | 0.44 µM
